How the values were obtained:
Format in all cases: in vivo
[1] = system: Setaria viridis (SETVI); assay: A. Herbicidal pre-emergence efficacy, SETVI
Summary of the method: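 Applied before emergence onto covering soil at rates of 1280 g/ha or less, using 600 L/ha spray water with 0.5% additive. Scoring: visual % efficacy after ~3 weeks, greenhouse.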

[2] = system: Abutilon theophrasti (ABUTH); assay: B. Herbicidal post-emergence efficacy, ABUTH; settings: rated visually after about 3 weeks
Summary of the method: (§1)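 Post-emergence greenhouse test: one-leaf-stage plants, compound (WP/EC, +0.5% additive, 600 L/ha water, ≤1280 g/ha) applied to green parts; % efficacy scored visually vs untreated after ~3 wk; 100% = plants died.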

[3] = system: Amaranthus retroflexus (AMARE); assay: B. Herbicidal post-emergence efficacy, AMARE
Summary of the method: as §1

[4] = system: Polygonum convolvulus (POLCO); assay: C. Herbicidal pre-emergence efficacy, POLCO; settings: scored after about 3 weeks
Summary of the method: (§2)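 Pre-emergence test: formulated compounds sprayed as aqueous suspension or emulsion with 0.5% additive at 600 l/ha onto soil covering sown seeds, at rates corresponding to 320 g/ha or less. After about 3 weeks in greenhouse, efficacy scored visually as percent versus untreated controls (100% = plants dead).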

[5] = system: Triticum aestivum (TRZAS); assay: F. Post-emergence effect on useful plants, TRZAS; settings: useful plant
Summary of the method: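 Visual efficacy rating versus untreated plants, from 0% (no effect) to 100% (plants died), made about 3 weeks after post-emergence treatment. Formulated compounds (WP or EC, 0.5% additive, 600 l/ha water) were sprayed onto greenhouse-grown crops at the one-leaf stage, 2-3 weeks after sowing.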

[6] = system: Triticum aestivum (TRZAS); assay: D. Pre-emergence effect on useful plants, TRZAS; settings: useful plant, application rate 80 g/ha
Summary of the method: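 Seeds sown in pots and covered with soil; WP or EC formulations sprayed on the soil surface as aqueous suspension/emulsion with 0.5% additive at 600 l/ha water. Plants grown in greenhouse; crop damage scored visually after about 3 weeks as % versus untreated controls (100% = dead, 0% = like control).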

[7] = system: Lolium rigidum (LOLRI); assay: C. Herbicidal pre-emergence efficacy, LOLRI; settings: scored after about 3 weeks
Summary of the method: as §2

[8] = system: Abutilon theophrasti (ABUTH); assay: C. Herbicidal pre-emergence efficacy, ABUTH; settings: scored after about 3 weeks
Summary of the method: as §2

Row | Post-emergence efficacy against TRZAS in % ([5]; application rate 80 g/ha) [%] | Pre-emergence efficacy against TRZAS in % [6] [%] | SMILES | Pre-emergence efficacy against SETVI ([1]; dosage 80 g/ha) [%] | Pre-emergence efficacy against SETVI ([1]; dosage 320 g/ha) [%] | Pre-emergence efficacy against SETVI ([1]; dosage 1280 g/ha) [%] | Post-emergence efficacy against ABUTH in % ([2]; 80 g/ha) [%] | Post-emergence efficacy against ABUTH in % ([2]; 320 g/ha) [%] | Post-emergence efficacy against ABUTH in % ([2]; 1280 g/ha) [%] | Post-emergence efficacy against AMARE ([3]; 80 g/ha) [%] | Post-emergence efficacy against AMARE ([3]; 320 g/ha) [%] | Post-emergence efficacy against AMARE ([3]; 1280 g/ha) [%] | Pre-emergence efficacy against POLCO ([4]; 80 g/ha) [%] | Pre-emergence efficacy against POLCO ([4]; 320 g/ha) [%] | Pre-emergence efficacy against LOLRI ([7]; 320 g/ha) [%] | Pre-emergence efficacy against ABUTH ([8]; 80 g/ha) [%] | Pre-emergence efficacy against ABUTH ([8]; 320 g/ha) [%] | Pre-emergence efficacy against LOLRI ([7]; 80 g/ha) [%] | Post-emergence efficacy against TRZAS in % ([5]; application rate 320 g/ha) [%]
1 | 20 | 0 | O=S(=O)(CCC1CC1)Oc1c(F)cccc1Oc1ncc(Cl)cn1 [Example I-55] | 100 | 100 | 100 | 90 | 90 | 90 | 90 | 90 | 90 | 90 | 90 | 90 | – | – | – | –
2 | 10 | – | O=S(=O)(CCC(F)(F)F)Oc1c(F)cccc1Oc1ncc(Br)cn1 [Example I-40] | 100 | 100 | 100 | – | – | – | – | 90 | 90 | 100 | 100 | 100 | 100 | 100 | – | 20
3 | 10 | – | O=S(=O)(CCCC(F)F)Oc1c(F)cccc1Oc1ncc(Cl)cn1 [Example I-56] | 100 | 100 | 100 | 90 | 90 | 90 | 90 | 90 | 90 | 100 | 100 | 100 | 100 | 100 | 100 | –
4 | 20 | – | O=S(=O)(CCCCl)Oc1ccccc1Oc1ncc(F)cn1 [Example I-5] | 100 | 100 | 100 | 90 | 100 | 100 | 100 | 100 | 100 | 90 | 100 | 80 | – | 100 | – | –
5 | 0 | – | O=S(=O)(CCC(F)(F)F)Oc1c(F)cccc1Oc1ncc(F)cn1 [Example I-47] | 100 | 100 | 100 | 90 | 100 | 100 | – | – | – | 100 | 100 | 100 | 100 | 100 | 90 | –
6 | 20 | – | O=S(=O)(CCCCl)Oc1c(F)cccc1Oc1ncc(Cl)cn1 [Example I-14] | 100 | 100 | 100 | 90 | 100 | 100 | 100 | 100 | 100 | 90 | 100 | 100 | 90 | 100 | – | –
7 | 10 | – | O=S(=O)(CCC(F)(F)F)Oc1c(F)cccc1Oc1ncc(Cl)cn1 [Example I-48] | 90 | 90 | 100 | 90 | 90 | 90 | 90 | 90 | 90 | 100 | 100 | 100 | 100 | 100 | 90 | –

The remaining lines, values behind:

Row | SMILES | Post-emergence efficacy against TRZAS in % ([5]; application rate 80 g/ha) [%] | Pre-emergence efficacy against TRZAS in % [6] [%] | Pre-emergence efficacy against SETVI ([1]; dosage 80 g/ha) [%] | Pre-emergence efficacy against SETVI ([1]; dosage 320 g/ha) [%] | Pre-emergence efficacy against SETVI ([1]; dosage 1280 g/ha) [%] | Post-emergence efficacy against ABUTH in % ([2]; 80 g/ha) [%] | Post-emergence efficacy against ABUTH in % ([2]; 320 g/ha) [%] | Post-emergence efficacy against ABUTH in % ([2]; 1280 g/ha) [%] | Post-emergence efficacy against AMARE ([3]; 80 g/ha) [%] | Post-emergence efficacy against AMARE ([3]; 320 g/ha) [%] | Post-emergence efficacy against AMARE ([3]; 1280 g/ha) [%] | Pre-emergence efficacy against POLCO ([4]; 80 g/ha) [%] | Pre-emergence efficacy against POLCO ([4]; 320 g/ha) [%] | Pre-emergence efficacy against LOLRI ([7]; 320 g/ha) [%] | Pre-emergence efficacy against ABUTH ([8]; 80 g/ha) [%] | Pre-emergence efficacy against ABUTH ([8]; 320 g/ha) [%] | Pre-emergence efficacy against LOLRI ([7]; 80 g/ha) [%] | Post-emergence efficacy against TRZAS in % ([5]; application rate 320 g/ha) [%]
8 | O=S(=O)(CCCC(F)(F)F)Oc1ccccc1Oc1ncc(Cl)cn1 [Example I-10] | – | – | 90 | 90 | 100 | 90 | 90 | 90 | 90 | 90 | 100 | 90 | 100 | 100 | 100 | 100 | 90 | –
9 | CCCCS(=O)(=O)Oc1ccccc1Oc1ncc(Cl)cn1 [Example I-6] | – | – | 90 | 90 | 100 | – | 90 | 90 | 90 | 100 | 100 | 90 | 90 | 100 | 90 | 100 | 80 | –
10 | O=S(=O)(CCCCCl)Oc1ccccc1Oc1ncc(Cl)cn1 [Example I-15] | – | – | 100 | 100 | 100 | 100 | 100 | 100 | 100 | 100 | 100 | 80 | 100 | 80 | – | 100 | – | –
11 | O=S(=O)(CC1CC(F)(F)C1)Oc1c(F)cccc1Oc1ncc(Cl)cn1 [Example I-53] | – | – | 100 | 100 | 100 | 90 | 90 | 90 | 90 | 90 | 90 | 100 | 100 | 100 | 100 | 100 | – | –
12 | Cc1cccc(Oc2ncc(F)cn2)c1OS(=O)(=O)CCCC(F)(F)F [Example I-46] | 0 | – | 90 | 100 | 100 | – | 100 | 100 | – | – | – | 90 | 100 | 100 | 100 | 100 | – | 10
13 | O=S(=O)(CCCC(F)(F)F)Oc1c(Cl)cccc1Oc1ncc(Cl)cn1 [Example I-39] | 0 | – | 90 | 100 | 100 | – | – | 90 | – | 90 | 90 | 100 | 100 | 100 | 100 | 100 | – | 20
14 | CC(C)CS(=O)(=O)Oc1ccccc1Oc1ncc(Cl)cn1 [Example I-7, [2-(5-Chloropyrimidin-2-yl)oxyphenyl] 2-methylpropane-1-sulfonate] | 20 | – | 100 | 100 | 100 | – | 90 | 90 | – | 90 | 90 | 90 | 100 | 90 | – | 100 | – | –
15 | O=S(=O)(CCCC(F)(F)F)Oc1c(F)cccc1Oc1ncc(Cl)cn1 [Example I-49] | 20 | – | 90 | 100 | 100 | 90 | 90 | 90 | 90 | 90 | 100 | 100 | 100 | 90 | 100 | 100 | 80 | –

— patent US20240174618A1, “SUBSTITUTED (2-HETEROARYLOXYPHENYL)SULFONATES, SALTS THEREOF AND THEIR USE AS HERBICIDAL AGENTS” (Bayer Aktiengesellschaft, priority 2021, published 2024)
